ChEMBL document CHEMBL1159208, “The structures and cytotoxic properties of polyketide peroxides from a Plakortis sponge” (J Nat Prod, 1995)
Active and inactive are the calls of the source. The calls are words filed in the database; no cut-off is given here.

System: NCI60
Test: Cytotoxicity against human NCI60 cells
Format: functional, cell-based

Row | Structure (SMILES) | Activity
1 | C[C@]1(CCCCCCCCc2ccccc2)CC[C@](C)(CCC(=O)O)OO1 | inactive
2 | C[C@]1(CCCCCCCCCCc2ccccc2)C[C@@]2(C)OC(=O)C[C@H]2O1 | inactive
